Values after ≈ are worked out from the molar mass of the structure shown. Read-outs that look alike come from different tables or passages of the source.
How the values were obtained:
[1] = Headspace Method, Air/IPM partition (dynamic headspace GC/MS); type: physicochemical; details: for Air/IPM partition coef / Headspace: 30° C.; for Headspace: above IPM solution of about 2.1E+06 ng/mL
Method: (§1) Perfume headspace data is collected for various materials according to the method provided below.
(§2) The partition coefficients are calculated by determining the amount of PRM in the headspace above a solution with a known concentration using a GC/FID-MS (Agilent 7890 and 5977A MSD) with a thermal desorption unit (Gerstel MPS2) and Dynamic Headspace Sampler (Gerstel DHS). This technique allows for automated headspace collections using the MultiPurposeSampler (MPS). The PRMs of interest are prepared at a known concentration in isopropyl myristate (IPM) or propylene glycol monomethyl ether (DPM), and 1 mL is pipetted in a 20 mL headspace vial.
(§3) DHS Conditions: The sample is tempered in the unit at 30° C. A helium stream at 10 mls/min purges 20 mL of headspace containing the analytes above the sample onto the sorbent tube (TDU) containing 25 mg of TenaxTA 35/60 (Restek cat # 25701).
(§4) TDU conditions: The sorbent tube is desorbed with a program starting at 30° C. solvent vent for 2 min then ramped at 720° C./min to 270 ° C. and held for 8 min. The analytes are refocused on a glass bead liner at -60° C. then desorbed at a rate of 12 ° C./s to 270° C. onto the GC column.
(§5) GC/MS conditions: Agilent 122-5532UI column of 30 m×250 μm×0.25 μm and a flow rate of 1.5 mL/min is utilized. A temperature program of 50° C. to 280° C. with a 2 min hold and a ramp rate of 12° C./min is suitable. Scan or SIM mode MSD parameters with a solvent delay for the DPM are applied to achieve appropriate detection.
(§6) Analytical standards can be obtained from Sigma Aldrich, St. Louis, MO and BioSynth, UK. A stock solution is prepared at approximately 0.5 g/L. The stock solution is then diluted to 4 to 5 concentrations ranging from approximately 0.05 g/L to 0.00005 g/L. These standard solutions are then analyzed by GC/MS. This analysis is performed by using the same TDU desorption and GC/MS conditions described above with a luL liquid injection onto the TDU tube instead of the DHS collection. The amount injected on column and the area responses of the target m/z are utilized to create a calibration plot with a linear fit.
(§7) Quantification of the headspace is performed by the PRM target m/z area response of the perfume component and the linear equation of the calibration plot.
(§8) Perfume headspace data is collected for various materials according to the Headspace 5 Method provided above in the Test Methods section. The Air/Solvent partition coefficients are determined and indexed accordingly (e.g., where the partition coefficient for ethylvanillin is set at 1.00).

[2] = Headspace Method, Air/DPM partition (dynamic headspace GC/MS); type: physicochemical; details: for Air/DPM partition coef / Headspace: 30° C.; for Headspace: above DPM solution of 1.1E+07 ng/mL
Method: as §1, §2, §3, §4, §5, §6, §7, §8

physchem = details: oil or lipid, thermodynamic from solid

For `CCOc1cc(C=O)ccc1O` [Ethylvanillin], the Air/IPM partition coef ([1]; average of two replicates) was 1.95E−08 ng/mL in air per ng/mL in IPM, the Headspace ([1]; average of two replicates) was 0.0402 ng/mL and the “Ethylvanillin Indexed Air/IPM partition coefficient” value ([1]; indexed, ethylvanillin set at 1.00, average of two replicates) was 1.00. The Air/DPM partition coef ([2]; average of three replicates) was 2.45E−09 ng/mL in air per ng/mL in DPM, the Headspace ([2]; average of three replicates) was 0.0262 ng/mL and the “Ethylvanillin Indexed Air/DPM partition coefficient” value ([2]; indexed, ethylvanillin set at 1.00, average of three replicates) was 1.00. It also gave a solubility (physchem) of 38 mg/mL (≈ 229 mM).
For `COc1cc(C=O)ccc1O` [Vanillin], the “Ethylvanillin Indexed Air/IPM partition coefficient” value [1] was 1.40, the Air/IPM partition coef ([1]; average of two replicates) was 2.73E−08 ng/mL in air per ng/mL in IPM and the Headspace ([1]; average of two replicates) was 0.0563 ng/mL. The “Ethylvanillin Indexed Air/DPM partition coefficient” value [2] was 4.88, the Air/DPM partition coef ([2]; average of three replicates) was 1.21E−08 ng/mL in air per ng/mL in DPM and the Headspace ([2]; average of three replicates) was 0.1288 ng/mL.
With `CCOc1cccc(C=O)c1O` [ortho-Ethylvanillin, 2-hydroxy-3-ethoxybenzaldehyde] the “Ethylvanillin Indexed Air/IPM partition coefficient” value [1] was 6.17, the Air/IPM partition coef ([1]; average of two replicates) was 1.21E−07 ng/mL in air per ng/mL in IPM and the Headspace ([1]; average of two replicates) was 0.2521 ng/mL. The “goes into the headspace more than its structural isomer ethylvanillin” value ([1]; out of IPM) was “about 6.2 X”, the “Ethylvanillin Indexed Air/DPM partition coefficient” value [2] was 93.7 and the Air/DPM partition coef ([2]; average of three replicates) was 2.31E−07 ng/mL in air per ng/mL in DPM. The Headspace ([2]; average of three replicates) was 2.4678 ng/mL, the “goes into the headspace more than ethylvanillin” value ([2]; out of DPM) was “about 94 X” and the solubility (physchem) was 73 mg/mL (≈ 439 mM).

Source: patent US20240199977A1, “COMPOSITIONS COMPRISING A META-(C1-C4 ALKOXY) […]” (The Procter & Gamble Company, priority 2022, published 2024)
